Experimental data reported in US10597388B2, “Pyridazinone herbicides” (FMC CORPORATION, priority 2014, dated 2020).

Experiments:
Assay type in all cases: in vivo
[1] = tested on: sedge, umbrella (small-flower umbrella sedge, Cyperus difformis); experiment: Test B flooded paddy test; settings: 250 g ai/ha, Flood; visual rating on scale of 0 to 100 where 0 is no effect and 100 is complete control; 13 to 15 d after treatment
How it was run: (§1)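 Ratings use a 0-100 visual scale, where 100 is complete control, and compare treated plants with controls after 13 to 15 d of greenhouse growth. Compound went straight into paddy water kept 3 cm over the soil surface, applied to seedlings at the 2-leaf stage.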

[2] = tested on: ducksalad (Heteranthera limosa); experiment: Test B flooded paddy test; settings: 250 g ai/ha, Flood; visual rating on scale of 0 to 100 where 0 is no effect and 100 is complete control; 13 to 15 d after treatment
How it was run: as §1

[3] = tested on: barnyardgrass (Echinochloa crus-galli); experiment: Test B flooded paddy test; settings: 250 g ai/ha, Flood; visual rating on scale of 0 to 100 where 0 is no effect and 100 is complete control; 13 to 15 d after treatment
How it was run: as §1

[4] = tested on: rice (Oryza sativa); experiment: Test B flooded paddy test; settings: 250 g ai/ha, Flood; visual rating on scale of 0 to 100 where 0 is no effect and 100 is complete control; 13 to 15 d after treatment
How it was run: as §1

[5] = tested on: barnyardgrass (Echinochloa crus-galli); experiment: Test A greenhouse herbicide test, pre- and postemergence
How it was run: (§2)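 Visual injury ratings, 0 (no effect) to 100 (complete control), versus untreated plants after roughly 10 d in a greenhouse. Compounds, formulated in a surfactant-containing non-phytotoxic solvent, were sprayed on loam–sand soil after sowing (pre) or on one- to two-leaf plants 2–10 cm tall (post).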

[6] = tested on: corn (Zea mays); experiment: as above; settings: Postemergence; for Plant response rating, Corn: 125 g ai/ha, visual rating after approx. 10 d, 0 to 100 scale (0 no effect, 100 complete control); for Corn plant response rating: 0 to 100 scale, 0 is no effect, 100 is complete control
How it was run: as §2

[7] = tested on: ryegrass, Italian (Italian ryegrass, Lolium multiflorum); experiment: as above
How it was run: as §2

[8] = tested on: oat, wild (wild oat, Avena fatua); experiment: Test C greenhouse herbicide test, postemergence
How it was run: (§3)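 Seedlings are raised in pots of peat moss–vermiculite medium with starter nutrients, then receive postemergence test chemical at the 1- to 4-leaf stage. They are kept in the greenhouse 13 to 15 d and scored visually versus controls, 0 meaning no effect and 100 complete control.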

[9] = tested on: kochia (Kochia scoparia); experiment: Test C greenhouse herbicide test, postemergence
How it was run: as §3

[10] = tested on: chickweed (common chickweed, Stellaria media); experiment: Test C greenhouse herbicide test, postemergence
How it was run: as §3

[11] = tested on: blackgrass (Alopecurus myosuroides); experiment: Test A greenhouse herbicide test, postemergence; settings: for Plant response rating, Blackgrass: 125 g ai/ha, visual rating after approx. 10 d, 0 to 100 scale (0 no effect, 100 complete control); for Blackgrass plant response rating: 0 to 100 scale, 0 is no effect, 100 is complete control
How it was run: (§4)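 Scores are visual injury ratings from 0 (no effect) to 100 (complete control) versus untreated plants, taken roughly 10 d after treatment in the greenhouse. Treatment was postemergence, on one- to two-leaf plants 2–10 cm high growing in a loam soil/sand mix.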

[12] = tested on: galium (catchweed bedstraw, Galium aparine); experiment: Test A greenhouse herbicide test, postemergence; settings: for Plant response rating, Galium: 125 g ai/ha, visual rating after approx. 10 d, 0 to 100 scale (0 no effect, 100 complete control); for Galium plant response rating: 0 to 100 scale, 0 is no effect, 100 is complete control
How it was run: as §4

[13] = Postemergence, 125 g ai/ha, visual rating after approx. 10 d, 0 to 100 scale (0 no effect, 100 complete control)
[14] = Postemergence, 500 g ai/ha, 0 to 100 scale, 0 is no effect, 100 is complete control
[15] = Preemergence, 125 g ai/ha, 0 to 100 scale where 0 is no effect and 100 is complete control
[16] = Preemergence, 500 g ai/ha, 0 to 100 scale, 0 no effect, 100 complete control
[17] = Postemergence, 125 g ai/ha, 0 to 100 scale where 0 is no effect and 100 is complete control
[18] = Postemergence, 31 g ai/ha, 0 to 100 scale (0 no effect, 100 complete control)
[19] = Postemergence, 125 g ai/ha, scale 0 to 100, 0 is no effect, 100 is complete control
[20] = Postemergence, 250 g ai/ha, scale 0 to 100, 0 no effect, 100 complete control, 13 to 15 d
[21] = postemergence, 62 g ai/ha, scale 0 to 100, 0 no effect, 100 complete control
[22] = Postemergence, 1000 g ai/ha, 0 to 100 scale, 0 is no effect, 100 is complete control
[23] = Preemergence, 1000 g ai/ha, 0 to 100 scale, 0 no effect, 100 complete control

## Cc1ccc2ccccc2c1-c1c(O)c(I)nn(C)c1=O [Compound 29]
[1]
  Plant response rating, Sedge, Umbrella: 60
[2]
  Plant response rating, Ducksalad: 55
[3]
  Plant response rating, Barnyardgrass: 0
[4]
  Plant response rating, Rice: 0
[5]; [13]
  Plant response rating, Barnyardgrass: 70
[5]; [14]
  Barnyardgrass plant response rating: 80
[5]; [15]
  Barnyardgrass plant response rating: 70
[5]; [16]
  Plant response rating, Barnyardgrass: 90
[6]
  Plant response rating, Corn: 10
[6]; 500 g ai/ha
  Corn plant response rating: 40
[7]; [17]
  Plant response rating, Ryegrass, Italian: 90
[7]; [14]
  Ryegrass, Italian plant response rating: 100
[7]; [15]
  Ryegrass, Italian plant response rating: 80
[7]; [16]
  Plant response rating, Ryegrass, Italian: 90
[8]; [18]
  Oat, Wild plant response rating: 60
[8]; [19]
  Plant response rating, Oat, Wild: 85
[8]; [20]
  Plant response rating, Oat, Wild: 95
[8]; [21]
  Oat, Wild plant response rating: 55
[9]; [18]
  Kochia plant response rating: 60
[9]; [19]
  Plant response rating, Kochia: 75
[9]; [20]
  Plant response rating, Kochia: 85
[9]; [21]
  Kochia plant response rating: 60
[10]; [18]
  Chickweed plant response rating: 95
[10]; [19]
  Plant response rating, Chickweed: 100
[10]; [20]
  Plant response rating, Chickweed: 100
[10]; [21]
  Chickweed plant response rating: 95
[11]
  Plant response rating, Blackgrass: 70
[11]; 500 g ai/ha
  Blackgrass plant response rating: 80
[12]
  Plant response rating, Galium: 90
[12]; 500 g ai/ha
  Galium plant response rating: 90

## CCc1ccc2ccccc2c1-c1c(O)c(C)nn(C)c1=O [Compound 32]
[1]
  Plant response rating, Sedge, Umbrella: 0
[2]
  Plant response rating, Ducksalad: 0
[3]
  Plant response rating, Barnyardgrass: 0
[4]
  Plant response rating, Rice: 0
[5]; [22]
  Barnyardgrass plant response rating: 90
[5]; [23]
  Plant response rating, Barnyardgrass: 100
[6]; 1000 g ai/ha
  Corn plant response rating: 50
[7]; [22]
  Ryegrass, Italian plant response rating: 100
[7]; [23]
  Plant response rating, Ryegrass, Italian: 100
[8]; [18]
  Oat, Wild plant response rating: 70
[8]; [19]
  Plant response rating, Oat, Wild: 100
[8]; [20]
  Plant response rating, Oat, Wild: 100
[8]; [21]
  Oat, Wild plant response rating: 90
[9]; [18]
  Kochia plant response rating: 50
[9]; [19]
  Plant response rating, Kochia: 90
[9]; [20]
  Plant response rating, Kochia: 95
[9]; [21]
  Kochia plant response rating: 50
[10]; [18]
  Chickweed plant response rating: 90
[10]; [19]
  Plant response rating, Chickweed: 100
[10]; [20]
  Plant response rating, Chickweed: 100
[10]; [21]
  Chickweed plant response rating: 95
[11]; 1000 g ai/ha
  Blackgrass plant response rating: 90
[12]; 1000 g ai/ha
  Galium plant response rating: 100

## Cc1cc2ccccc2c(-c2c(O)c(C)nn(C)c2=O)c1C [Compound 34]
[1]
  Plant response rating, Sedge, Umbrella: 0
[2]
  Plant response rating, Ducksalad: 0
[3]
  Plant response rating, Barnyardgrass: 0
[4]
  Plant response rating, Rice: 0
[5]; [13]
  Plant response rating, Barnyardgrass: 30
[5]; [14]
  Barnyardgrass plant response rating: 90
[5]; [15]
  Barnyardgrass plant response rating: 20
[5]; [16]
  Plant response rating, Barnyardgrass: 80
[6]
  Plant response rating, Corn: 0
[6]; 500 g ai/ha
  Corn plant response rating: 0
[7]; [17]
  Plant response rating, Ryegrass, Italian: 100
[7]; [14]
  Ryegrass, Italian plant response rating: 100
[7]; [15]
  Ryegrass, Italian plant response rating: 100
[7]; [16]
  Plant response rating, Ryegrass, Italian: 100
[8]; [18]
  Oat, Wild plant response rating: 80
[8]; [19]
  Plant response rating, Oat, Wild: 90
[8]; [20]
  Plant response rating, Oat, Wild: 90
[8]; [21]
  Oat, Wild plant response rating: 85
[9]; [18]
  Kochia plant response rating: 10
[9]; [19]
  Plant response rating, Kochia: 60
[9]; [20]
  Plant response rating, Kochia: 85
[9]; [21]
  Kochia plant response rating: 45
[10]; [18]
  Chickweed plant response rating: 90
[10]; [19]
  Plant response rating, Chickweed: 90
[10]; [20]
  Plant response rating, Chickweed: 95
[10]; [21]
  Chickweed plant response rating: 90
[11]
  Plant response rating, Blackgrass: 80
[11]; 500 g ai/ha
  Blackgrass plant response rating: 90
[12]
  Plant response rating, Galium: 90
[12]; 500 g ai/ha
  Galium plant response rating: 100
